The numbers were not newly measured in US9034614B2, “Method of preparing alkyl butyrate from fermented liquid using microorganisms” (priority 2010, dated 2015), which cites them from elsewhere.

Each structure is given as a SMILES string. In brackets after ≈: the same amount, converted by molar mass. Where two headings read alike, the source gives them in different places.

`CCCCOC(=O)CCC` [Butyl butyrate]: for the setting “stated in words”, the Solubility in water result is recorded as “Insoluble”. Turning to `CCO` [Ethanol, reference compound], the Solubility in water entry (stated in words) is given as “Miscible”. For the compound `CCCC(=O)OCC` [Ethyl butyrate], the Solubility in water was 4900 µg/mL (≈ 42.2 mM).
